From US10227668B2, “Method for preparing fructose or xylulose from biomass containing glucose or xylose using butanol, and method for separating the same” (KOREA RESEARCH INSTITUTE OF CHEMICAL TECHNOLOGY, priority 2016, dated 2019)
Values after ≈ are worked out from the molar mass of the structure shown.

Assays:
Solubility in 1-butanol = assay type: physicochemical; details: per 100 g 1-butanol, 50° C.
Text: As a result, glucose having remarkably low solubility at the corresponding temperature can be selectively crystallized, thereby easily separating the glucose by filtration.

[1] = @ 40° C.; cited from earlier work
[2] = @ 40° C.; cited from earlier work; remark: listed apart in the source

O=C(CO)[C@@H](O)[C@H](O)[C@H](O)CO [fructose]
solubility in 1-butanol (Solubility in 1-butanol): 32 g
solubility in methanol [1]: 229.7 mg/mL (≈ 1280 mM)
solubility in ethanol [2]: 36.3 mg/mL (≈ 201 mM)
